The subject of the assay is Schweißsekretion. In words: Imprint method: sweat reduction on the inner forearm after topical application for several days, sauna sweating, silicone imprint with image analysis. The class given is in vivo, menschlichen Probanden. An excerpt:
Der Nachweis der Wirksamkeit wurde an menschlichen Probanden mit Hilfe der sogenannten "Imprintmethode" geführt. Bei dieser Methode wird das zu untersuchende Material am Unterarm innen mehrere Tage hintereinander (topisch) angewendet, sodann begeben sich die Probanden in die Sauna zum Schwitzen. An der Untersuchungsstelle wird eine Silikonmasse aufgetragen, die während der Schwitzphase aushärtet. An den Stellen, an denen Schweisströpfchen austreten, bilden sich Abdrücke in der Silikonmasse, welche bildanalytisch ausgewertet werden können. Nach diesem Verfahren wurden zunächst die Wirkstoffe in wäßriger Lösung untersucht und sodann entsprechende kosmetische Zubereitungen.
Es wurden wässrige Lösungen aus Mecetroniumethylsulfat (MES) hergestellt und an 15 Probanden die Schweissreduktion mit Hilfe der Imprint-Methode am inneren Unterarm geprüft. Zum Vergleich wurde eine 10 %ige Aluminiumchlorhydrat-Lösung verwendet

“And” between values parts separate entries of the source, which are not always exact repeats. Equal entries are not always repeated.

On to `CCCCCCCCCCCCCCCC[N+](C)(C)CC` [MES, N-Hexadecyl-N-ethyl-N,N-dimethylammoniumethylsulfat], for which the “Reduktion der Schweißsekretion” value (in vivo) is 93% and 95%. In the case of Aluminiumchlorhydrat, the “Reduktion der Schweißsekretion” value (10 %ige comparison solution, 15 Probanden, inner forearm) turned out to be 93%.

For the origin of these results see patent EP1027880A2, “Use of quaternary ammonium compounds as antiperspirants” (Beiersdorf Aktiengesellschaft, priority 1999, dated 2000).
